Reference: patent publication US8889591B2, “Herbicidal compositions comprising 4-amino-3-chloro-5-fluoro-6-(4-chloro-2-fluoro-3-methoxyphenyl)pyridine-2-carboxylic acid or a derivative thereof and bromobutide, daimuron, oxaziclomefone or pyributicarb” (Dow Agrosciences LLC, priority 2012, dated 2014)

Key:
ECHCO = experiment: Postemergence foliar-applied greenhouse weed control, direct-seeded rice system; type: in vivo, Echinochloa colona (L.) Link
Text: (§1) Seeds or nutlets of the desired test plant species were planted in a soil matrix prepared by mixing a loam or sandy loam soil (e.g., 28.6 percent silt, 18.8 percent clay, and 52.6 percent sand, with a pH of about 5.8 and an organic matter content of about 1.8 percent) and calcareous grit in an 80 to 20 ratio. The soil matrix was contained in plastic pots with a volume of 1 quart and a surface area of 83.6 square centimeters (cm^2). When required to ensure good germination and healthy plants, a fungicide treatment and/or other chemical or physical treatment was applied. The plants were grown for 8-22 days in a greenhouse with an approximate 14 h photoperiod which was maintained at about 29° C. during the day and 26° C. during the night. Nutrients (Peters Excel® 15-5-15 5-Ca 2-Mg and iron chelate) were applied in the irrigation solution as needed and water was added on a regular basis. Supplemental lighting was provided with overhead metal halide 1000-Watt lamps as necessary. The plants were employed for testing when they reached the first through fourth true leaf stage.
(§2) Treatments consisted of the acid or esters of 4-amino-3-chloro-5-fluoro-6-(4-chloro-2-fluoro-3-methoxy-phenyl)pyridine-2-carboxylic acid (Compound A), each formulated as an SC (suspension concentrate), and various herbicidal components alone and in combination. Forms of compound A were applied on an acid equivalent basis.
(§3) Other herbicidal components were applied on an active ingredient basis and included diamuron formulated as an EC (emulsifiable concentrate) and oxaziclomefone (technical grade material).
(§4) Treatment requirements were calculated based upon the rates being tested, the concentration of active ingredient or acid equivalent in the formulation, and a 12 mL application volume at a rate of 187 L/ha.
(§5) For treatments comprised of formulated compounds, measured amounts of compounds were placed individually in 25 mL glass vials and diluted in a volume of 1.25% (v/v) Agri-Dex® crop oil concentrated to obtain 12× stock solutions. […] Application solutions were prepared by adding an appropriate amount of each stock solution (e.g., 1 mL) and diluted to the appropriate final concentrations with the addition of 10 mL of an aqueous mixture of 1.25% (v/v) crop oil concentrate so that the final spray solutions contained 1.25+/−0.05% (v/v) crop oil concentrate.
(§6) For treatments comprised of technical compounds, weighed amounts can be placed individually in 25 mL glass vials and dissolved in a volume of 97:3 v/v acetone/DMSO to obtain 12× stock solutions. […] Application solutions can be prepared by adding an appropriate amount of each stock solution (e.g., 1 mL) and diluted to the appropriate final concentrations with the addition of 10 mL of an aqueous mixture of 1.5% (v/v) crop oil concentrate so that the final spray solutions contain 1.25% (v/v) crop oil concentrate. When technical materials are used, the concentrated stock solutions can be added to the spray solutions so that the final acetone and DMSO concentrations of the application solutions are 16.2% and 0.5%, respectively.
(§7) For treatments comprised of formulated and technical compounds, weighed amounts of the technical materials were placed individually in 25 mL glass vials and dissolved in a volume of 97:3 v/v acetone/DMSO to obtain 12× stock solutions, and measured amounts of the formulated compounds were placed individually in 25 mL glass vials and diluted in a volume of 1.5% (v/v) crop oil concentrate or water to obtain 12× stock solutions. […] Application solutions were prepared by adding an appropriate amount of each stock solution (e.g., 1 mL) and diluted to the appropriate final concentrations with the addition of an appropriate amount of an aqueous mixture of 1.5% (v/v) crop oil concentrate so that the final spray solutions contained 1.25% (v/v) crop oil concentrate. […]

IPOHE = experiment: as above; type: in vivo, Ipomoea hederacea Jacq.
Text: as §1, §2, §3, §4, §5, §6, §7

[1] = Compound A Benzyl Ester 4.38 gae/ha alone
[2] = Compound A Benzyl Ester 8.75 gae/ha alone

SMILES: COc1c(Cl)ccc(-c2nc(C(=O)OCc3ccccc3)c(Cl)c(N)c2F)c1F [Compound A Benzyl Ester]
- Visual Weed Control (%) - 20 DAA ECHCO Obs (ECHCO; [1]): 40%
- Visual Weed Control (%) - 20 DAA ECHCO Obs (ECHCO; [2]): 90%
- Visual Weed Control (%) - 20 DAA IPOHE Obs (IPOHE; [1]): 10%
- Visual Weed Control (%) - 20 DAA IPOHE Obs (IPOHE; [2]): 25%
- Visual Weed Control (%) - 20 DAA IPOHE Obs (IPOHE; Compound A Benzyl Ester 17.5 gae/ha alone): 50%
